Results reported in paper PMC5000617, “Antiproliferative and Pro-Apoptotic Effect of Novel Nitro-Substituted Hydroxynaphthanilides on Human Cancer Cell Lines” (International Journal of Molecular Sciences, 2016).

Legend:
THP-1 cells [1] = test: WST-1 cell proliferation assay, THP-1; assay type: cell-based, human; details: for IC50: Homo sapiens, THP-1, WST-1, 24 h, 0.5-20 μM, mean ± SD; for effect on cell proliferation: THP-1, 0.5-20 μM, 24 h
Protocol: (§1) Initially, we examined the effect of six nitro-substituted hydroxynaphthanilides on the proliferation of human leukaemia and breast carcinoma cell lines, using Water Soluble Tetrazolium Salts-1 (WST-1) assay. For such analyses, THP-1 and MCF-7 cells were treated with the compounds at concentrations ranging from 0.5 to 20 μM for 24 h. […] The inhibitory effect of 2 and 6 was statistically significant (p < 0.001) starting from the concentration of 2.5 and 5 μM in THP-1 and MCF-7 cells, respectively. From the concentration-response curves, the IC50 values were determined.
(§2) THP-1 human monocytic leukemia cell line, MCF-7 human breast adenocarcinoma cells and 3T3-L1 mouse embryonic fibroblast were purchased from the European Collection of Cell Cultures (ECACC, Salisbury, UK). Cells were routinely tested for the absence of mycoplasma (Hoechst 33258 staining method). THP-1 cells were maintained in RPMI 1640 culture medium containing 2 mM L-glutamine; MCF-7 and 3T3-L1 cells were cultured in DMEM medium. All of the culture media were supplemented with 10% heat-inactivated FBS and antibiotics (100 U/mL penicillin and 100 μg/mL streptomycin). Cells were maintained at 37 °C in a humidified atmosphere containing 5% CO2.
(§3) Cell proliferation was evaluated using Cell Proliferation Reagent WST-1 (2-(4-iodophenyl)-3-(4-nitrophenyl)-5-(2,4-disulfophenyl)-2H-tetrazolium) (Roche Diagnostics, Mannheim, Germany) according to the manufacturer´s instructions. THP-1 (5 × 10^4 cells/100 μL culture medium per well), MCF-7 cells (1 × 10^4 cells/100 μL per well), and 3T3-L1 (2.5 × 10^3 cells/100 μL per well) were cultured in 96-well plates in triplicate. The measurement was performed using Synergy 2 Multi-Mode Microplate Reader (BioTek, Winooski, VT, USA) after 24 h incubation of cells with tested compounds dissolved in DMSO and subsequently in RPMI 1640 to final concentration ranging 0.5–20 μM in the assays. Cell viability was assessed by dye exclusion test. THP-1 (2 × 10^5 cells/mL per well) and MCF-7 cells (8 × 10^4 cells/mL per well) were incubated in 24-well plates with the indicated concentrations of compounds for 24 h. The number of viable cells was determined using hemocytometer after their staining with a solution of erythrosin B (0.1% erythrosin B (w/v) in PBS). The assays were conducted in triplicate. The IC50 and LC50 values were calculated from fitted concentration-response curves using GraphPad Prism 5.00 software (GraphPad Software, San Diego, CA, USA).

MCF-7 cells [2] = test: WST-1 cell proliferation assay, MCF-7; assay type: cell-based, human; details: for IC50: Homo sapiens, MCF7, WST-1, 24 h, 0.5-20 μM, mean ± SD; for effect on cell proliferation: MCF-7, 0.5-20 μM, 24 h
Protocol: as §1, §2, §3

3T3-L1 cells = test: WST-1 cell proliferation assay, 3T3-L1 non-tumour cells; assay type: cell-based, mouse; details: for effect on cell proliferation: 3T3-L1, 24 h; for IC50: Mus musculus, 3T3-L1, WST-1, 24 h, non-tumour cells, mean ± SD
Protocol: as §2, §3

[3] = Erythrosin B dye exclusion viability test, THP-1; assay type: cell-based; details: human, THP-1 cells; erythrosin B exclusion test, 24 h, mean ± SD; read-out: THP-1 LC50
Protocol: (§4) Subsequently, for the comparison of the antiproliferative and cytotoxic effects we assessed the cell viability after 24 h treatment with compounds 1–6 in both tumour cell lines using the dye exclusion test.
as §2, §3

THP-1 cells [4] = test: Erythrosin B dye exclusion viability test, THP-1; assay type: cell-based
Protocol: as §4, §2, §3

[5] = Erythrosin B dye exclusion viability test, MCF-7; assay type: cell-based; details: human, MCF-7 cells; erythrosin B exclusion test, 24 h, mean ± SD; read-out: MCF-7 LC50
Protocol: as §4, §2, §3

MCF-7 cells [6] = test: Erythrosin B dye exclusion viability test, MCF-7; assay type: cell-based
Protocol: as §4, §2, §3

THP-1 cells [7] = test: Flow cytometric cell cycle analysis (PI), THP-1; assay type: cell-based, human; details: THP-1, 24 h
Protocol: (§5) In order to determine at which stage of the cell cycle these compounds induce cell growth inhibition, flow cytometric analyses of cell cycle profiles in THP-1 and MCF-7 cell lines were performed. […] Therefore, THP-1 and MCF-7 cells were treated for 24 h with the compounds at concentrations of 2.5, 5, and 10 μM, respectively. In general, we detected a qualitatively similar effect on the distribution of cells in cell cycle phases following the treatment with compounds 2 and 6 in both leukaemia and breast carcinoma cells. […] This was in concert with a simultaneous decrease in the number of cells observed in the S phase compared to the drug-free control, while the percentage of cells in the G2/M phase remained unchanged.
(§6) THP-1 and sub-confluent MCF-7 cells were treated and subsequently incubated with indicated concentrations of compounds 2 and 6 for 24 h. After the incubation, cells were washed twice in PBS (pH 7.4), fixed in 70% ethanol and stored at −20 °C overnight. Fixed cells were collected by centrifugation, and supernatant was discarded. The cell pellet was washed twice with PBS and incubated with RNaseA (0.02 mg/mL) and 0.05% (v/v) Triton X-100 in PBS for 30 min at 37 °C. After the nuclei staining with propidium iodide (PI) (0.04 mg/mL), the cell cycle distribution was analysed using a flow cytometer Cell Lab Quanta SC (Beckman Coulter, Brea, CA, USA). The quantification of cell cycle distribution was carried out using software MultiCycle AV (Phoenix Flow System, San Diego, CA, USA). A total number of 2 × 10^4 cells was analysed per sample.

MCF-7 cells [8] = test: Flow cytometric cell cycle analysis (PI), MCF-7; assay type: cell-based, human; details: MCF-7, 24 h
Protocol: as §5, §6

cyclin E1 [9] = test: Western blot of cyclin E1 in THP-1 cells; assay type: cell-based, human; details: THP-1, 24 h
Protocol: (§7) Additionally, the cell cycle analysis allows determining the presence of a subdiploid cell population as a characteristic marker of cells with fractional DNA content. A significant increase (p < 0.001) of the sub-G1 peak was found only after the treatment with 5 µM of compound 2 in THP-1 cells, where an approximately eight-fold increase was observed compared to the drug-free control (Figure 4).
(§8) For Western blotting, cells were washed with PBS and lysed in lysis buffer (100 mM Tris-HCl, pH = 6.8; 20% glycerol; 1% SDS) containing protease and phosphatase inhibitor cocktails. Protein concentration was measured using Roti®-Quant universal (Carl Roth, Karsruhe, Germany) according to the manufacturer’s instructions. Cell lysates were supplemented with bromophenol blue (final concentration 0.01% (w/v)) and β-mercaptoethanol (final concentration 1% (v/v)) prior to being heated for 5 min at 95 °C. Equal amounts of protein (10 μg) were loaded into a 12% polyacrylamide gel, separated by SDS-polyacrylamide gel electrophoresis and subsequently electrotransferred onto nitrocellulose membranes. Reversible Ponceau S. staining was performed to assess equal sample loading. Then, the membranes were blocked with 5% non-fat dry milk in TBST (10 mM Tris-HCl pH = 7.5, 150 mM NaCl, 0.1% (v/v) Tween-20) and appropriate primary and secondary antibodies were used for immunodetection. The proteins were visualized by ECL Plus reagent according to the manufacturer’s instructions. The intensity of bands was semi-quantitatively analysed using the ImageJ software (National Institute of Mental Health, Bethesda, MD, USA).

cyclin E1 [10] = test: Western blot of cyclin E1 in MCF-7 cells; assay type: cell-based, human; details: MCF-7, 24 h
Protocol: as §7
as §8, with “Then, the membranes were blocked with 5% non-fat dry milk in TBST (10 mM Tris-HCl pH = 7.5, 150 mM NaCl, 0.1% (v/v) Tween-20) and appropriate primary and secondary antibodies were used for immunodetection. The proteins were visualized by ECL Plus reagent according to the manufacturer’s instructions.” left out

cyclin B1 [11] = test: Western blot of cyclin B1 in THP-1 cells; assay type: cell-based, human; details: THP-1, 24 h
Protocol: as §7
as §8, with “Then, the membranes were blocked with 5% non-fat dry milk in TBST (10 mM Tris-HCl pH = 7.5, 150 mM NaCl, 0.1% (v/v) Tween-20) and appropriate primary and secondary antibodies were used for immunodetection. The proteins were visualized by ECL Plus reagent according to the manufacturer’s instructions.” left out

cyclin B1 [12] = test: Western blot of cyclin B1 in MCF-7 cells; assay type: cell-based, human; details: MCF-7, 24 h
Protocol: as §7
as §8, with “Then, the membranes were blocked with 5% non-fat dry milk in TBST (10 mM Tris-HCl pH = 7.5, 150 mM NaCl, 0.1% (v/v) Tween-20) and appropriate primary and secondary antibodies were used for immunodetection. The proteins were visualized by ECL Plus reagent according to the manufacturer’s instructions.” left out

[13] = Annexin V-FITC/PI apoptosis assay by flow cytometry, THP-1; assay type: cell-based, human; details: human, THP-1 cells, THP-1, 5 μM, representative dot plot, read-out: quadrant I: viable cells
Protocol: (§9) Staining of cells by Annexin V-FITC conjugate reflects the externalization of phosphatidylserine on the outer surface of the cell membrane as one of the early indicators of apoptosis.
(§10) Early and late stages of apoptosis were detected using Annexin V-FITC Kit—Apoptosis Detection Kit faccording to the manufacturer´s instructions. […] At each time-point of incubation (12, 18, and 24 h) the cells were washed with ice-cold PBS prior to being resuspended at a concentration of 5 × 10^6 cells/mL in a total volume of 100 μL of 1× binding buffer. Annexin V-FITC solution (final concentration 0.25 μg/mL) and PI (final concentration 12.5 μg/mL) were added to each sample; the cell suspension was kept on ice and incubated for 15 min in the dark. After that, the analysis was carried out by flow cytometry. The data were evaluated using Kaluza Flow Cytometry Analysis 1.2. Per sample, a total number of 2 × 10^4 cells were analysed.

THP-1 cells [14] = test: as above; assay type: cell-based, human; details: mean
Protocol: as §9, §10

Compound | IC50 (THP-1 cells [1]) [µM] | effect on cell proliferation (THP-1 cells [1]) | IC50 (MCF-7 cells [2]) [µM] | effect on cell proliferation (MCF-7 cells [2]) | IC50 (3T3-L1 cells) [µM] | CC50 at 24 h [3] [µM] | CC50 at 24 h [5] [µM] | also measured
O=C(Nc1ccc([N+](=O)[O-])cc1)c1c(O)ccc2ccccc12 [Compound 6, 2-hydroxy-N-(4-nitrophenyl)-naphthalene-1-carboxamide] | 5.8 ± 0.37 | inhibit cell growth in both cell lines in a dose-dependent manner | 5.23 ± 0.802 | inhibit cell growth in both cell lines in a dose-dependent manner | > 20 | 9.98 ± 0.349 | > 20 | concentration from which the inhibitory effect on proliferation was statistically significant (p < 0.001) (THP-1 cells [1]; THP-1, 24 h): 2.5 µM; concentration from which the inhibitory effect on proliferation was statistically significant (p < 0.001) (MCF-7 cells [2]; MCF-7, 24 h): 5 µM; effect on cell proliferation (3T3-L1 cells): did not decrease cell growth at any of concentrations used; LC50 compared to IC50 (THP-1 cells [4]): 2–3 fold; effect on cell viability (MCF-7 cells [6]; MCF-7, 24 h, vs control): Neither compound 2 nor 6 reduced cell viability under 50%; distribution of cells in cell cycle phases (THP-1 cells [7]): induced accumulation of cells in G1 phase; sub-G1 / sub-diploid population (THP-1 cells [7]): no significant increase of sub-diploid population; distribution of cells in cell cycle phases (MCF-7 cells [8]): induced accumulation of cells in G1 phase; sub-G1 / sub-diploid population (MCF-7 cells [8]): no significant increase of sub-diploid population; expression of cyclin E1 (cyclin E1 [9]): dose-dependent decrease in expression of cyclin E1; levels of cyclin E1 low molecular weight (LMW E1) isoform (cyclin E1 [9]): more pronounced reduction of LMW E1 isoform levels; expression of cyclin E1 (cyclin E1 [10]): dose-dependent decrease in expression of cyclin E1; total protein levels of cyclin B1 (cyclin B1 [11]): total protein levels of cyclin B1 were not changed; total protein levels of cyclin B1 (cyclin B1 [12]): total protein levels of cyclin B1 were not changed
O=C(Nc1ccc([N+](=O)[O-])cc1)c1cc2ccccc2cc1O [Compound 3] | 1.05 ± 0.199 | inhibit cell growth in both cell lines in a dose-dependent manner | 1.65 ± 0.938 | inhibit cell growth in both cell lines in a dose-dependent manner | 4.41 ± 0.293 | 3.44 ± 1.21 | 12.9 ± 1.98 | effect on cell proliferation (3T3-L1 cells): affected the proliferation of 3T3-L1 cells in a dose-dependent manner; LC50 compared to IC50 (THP-1 cells [4]): 2–3 fold; LC50 in comparison with IC50 (MCF-7 cells [6]; MCF-7 cells): approximately seven-fold
O=C(Nc1ccccc1[N+](=O)[O-])c1c(O)ccc2ccccc12 [Compound 4] | > 20 | neither compound 1 nor 4 (both ortho-substituted derivatives) was able to induce the inhibition of cell growth | > 20 | neither compound 1 nor 4 (both ortho-substituted derivatives) was able to induce the inhibition of cell growth | > 20 | > 20 | > 20 | 
O=C(Nc1ccccc1[N+](=O)[O-])c1cc2ccccc2cc1O [Compound 1] | > 20 | neither compound 1 nor 4 (both ortho-substituted derivatives) was able to induce the inhibition of cell growth | > 20 | neither compound 1 nor 4 (both ortho-substituted derivatives) was able to induce the inhibition of cell growth | > 20 | > 20 | > 20 | 
CC[C@@]1(O)C(=O)OCc2c1cc1n(c2=O)Cc2cc3ccccc3nc2-1 [camptothecin, reference compound] |  |  |  |  |  |  |  | viability at 12 h, 5 µM ([13]; 12 h): 55.8%; viability at 18 h, 5 µM ([13]; 18 h): 53.8%; viability at 24 h, 5 µM ([13]; 24 h): 50.9%; early apoptotic cells (THP-1 cells [14]; THP-1, 5 µM, 12 h): 21.28%; late apoptotic cells (THP-1 cells [14]; THP-1, 5 µM, 12 h): 24.10%; early apoptotic cells (THP-1 cells [14]; THP-1, 5 µM, 24 h): 9.65%; late apoptotic cells (THP-1 cells [14]; THP-1, 5 µM, 24 h): 33.08%
N.N.[Cl][Pt][Cl] [cisplatin, reference compound] |  |  |  |  |  |  |  | early apoptotic cells (THP-1 cells [14]; THP-1, 10 µg/mL, 24 h): 44.38%
O=C(Nc1cccc([N+](=O)[O-])c1)c1c(O)ccc2ccccc12 [Compound 5] | > 20 | proliferation of THP-1 cells was not affected | > 20 | a 50% reduction in cell growth was not achieved | > 20 | > 20 | > 20 | 
